Reference: ChEMBL document CHEMBL1153550, “In vitro study of Candida tropicalis isolates exhibiting paradoxical growth in the presence of high concentrations of caspofungin” (2007)
Converted amounts (≈) assume the structure as drawn. The source made the active and inactive calls. No cut-off for these calls is given here.

Columns and labels:
Candida tropicalis [1] = test: Antifungal activity against > 2 x 10^7 CFU/ml Candida tropicalis isolate 7 in RPMI 1640 medium assessed as partial growth after 24 hrs by broth microdilution method; format: functional, organism-based
Candida tropicalis [2] = test: Antifungal activity against 10^5 CFU/ml Candida tropicalis isolate 9 in RPMI 1640 medium at 12.5 ug/ml treated for 24 hrs followed by incubation in drug free medium for 48 hrs by broth microdilution method; format: functional, organism-based
Candida tropicalis [3] = test: Antifungal activity against 2 x 10^7 CFU/ml Candida tropicalis isolate 11 in antibiotic medium 3 after 24 hrs by broth microdilution method; format: functional; conditions: isolate 11, 24 h
Candida tropicalis [4] = test: Antifungal activity against > 2 x 10^7 CFU/ml Candida tropicalis isolate 5 in RPMI 1640 medium assessed as partial growth after 24 hrs by broth microdilution method; format: functional, organism-based
Candida tropicalis [5] = test: Antifungal activity against 10^5 CFU/ml Candida tropicalis isolate 10 in RPMI 1640 medium at 12.5 ug/ml treated for 24 hrs followed by incubation in drug free medium for 48 hrs by broth microdilution method; format: functional, organism-based
Candida tropicalis [6] = test: Antifungal activity Candida tropicalis ATCC 750 in RPMI 1640 medium at 12.5 ug/ml after 24 hrs by time-kill assay; format: functional, organism-based
Candida tropicalis [7] = test: Antifungal activity against 10^5 CFU/ml Candida tropicalis isolate 4 in RPMI 1640 medium at 12.5 ug/ml treated for 48 hrs followed by incubation in drug free medium for 48 hrs by broth microdilution method; format: functional, organism-based
Candida tropicalis [8] = test: Antifungal activity against 10^5 CFU/ml Candida tropicalis isolate 2 in RPMI 1640 medium at =< 0.09 ug/ml after 24 hrs followed by incubation in drug free medium for 48 hrs by broth microdilution method; format: functional, organism-based
Candida tropicalis [9] = test: Antifungal activity against > 2 x 10^7 CFU/ml Candida tropicalis isolate 1 in RPMI 1640 medium assessed as partial growth after 24 hrs by broth microdilution method; format: functional, organism-based
Candida tropicalis [10] = test: Antifungal activity against 10^5 CFU/ml Candida tropicalis isolate 14 in RPMI 1640 medium at 12.5 ug/ml treated for 24 hrs followed by incubation in drug free medium for 48 hrs by broth microdilution method; format: functional, organism-based
Candida tropicalis [11] = test: Antifungal activity against 10^5 CFU/ml Candida tropicalis isolate 6 in RPMI 1640 medium at =< 0.09 ug/ml after 24 hrs by followed by incubation in drug free medium for 48 hrs broth microdilution method; format: functional, organism-based
Candida tropicalis [12] = test: Antifungal activity Candida tropicalis isolate 4 in RPMI 1640 medium at 0.19 to 6.25 ug/ml after 24 hrs by time-kill assay; format: functional, organism-based
Candida tropicalis [13] = test: Antifungal activity against 10^5 CFU/ml Candida tropicalis isolate 14 in RPMI 1640 medium at =< 0.09 ug/ml after 24 hrs followed by incubation in drug free medium for 48 hrs by broth microdilution method; format: functional, organism-based
Candida tropicalis [14] = test: Antifungal activity against 2 x 10^7 CFU/ml Candida tropicalis isolate 11 in RPMI 1640 medium after 24 hrs by broth microdilution method; format: functional; conditions: isolate 11, 24 h
Candida tropicalis [15] = test: Antifungal activity against Candida tropicalis isolate 7 in RPMI 1640 medium assessed as paradoxical growth at 12.5 ug/ml after 24 hrs by broth microdilution method; format: functional, organism-based
Candida tropicalis [16] = test: Antifungal activity against 10^5 CFU/ml Candida tropicalis isolate 6 in antibiotic medium 3 at 6.25 ug/ml treated for 24 hrs followed by incubation in drug free medium for 48 hrs by broth microdilution method; format: functional, organism-based
Candida tropicalis [17] = test: Antifungal activity against Candida tropicalis isolate 1 in antibiotic medium 3 assessed as paradoxical growth at 12.5 ug/ml after 24 hrs by broth microdilution method; format: functional, organism-based
Candida tropicalis [18] = test: Antifungal activity against Candida tropicalis isolate 7 in RPMI 1640 medium assessed as paradoxical growth at 6.25 ug/ml after 24 hrs by broth microdilution method; format: functional, organism-based
Candida tropicalis [19] = test: Antifungal activity against 10^5 CFU/ml Candida tropicalis clinical isolate in antibiotic medium 3 treated for 24 hrs followed by incubation in drug free medium for 48 hrs by broth microdilution method; format: functional, organism-based
Candida tropicalis [20] = test: Antifungal activity against Candida tropicalis isolate 4 in RPMI 1640 medium assessed as paradoxical growth at 12.5 ug/ml after 48 hrs by broth microdilution method; format: functional, organism-based
Candida tropicalis [21] = test: Antifungal activity against 10^5 CFU/ml Candida tropicalis clinical isolates in RPMI 1640 medium at 6.25 ug/ml after 48 hrs followed by incubation in drug free medium for 48 hrs by broth microdilution method; format: functional, organism-based
Candida tropicalis [22] = test: Antifungal activity against 10^5 CFU/ml Candida tropicalis isolate 8 in RPMI 1640 medium at 12.5 ug/ml treated for 24 hrs followed by incubation in drug free medium for 48 hrs by broth microdilution method; format: functional, organism-based
Candida tropicalis [23] = test: Antifungal activity against Candida tropicalis isolate 5 in RPMI 1640 medium assessed as paradoxical growth at 6.25 ug/ml after 24 hrs by broth microdilution method; format: functional, organism-based
Candida tropicalis [24] = test: Antifungal activity against 2 x 10^7 CFU/ml Candida tropicalis isolate 3 in RPMI 1640 medium after 24 hrs by broth microdilution method; format: functional; conditions: isolate 3, 24 h
Candida tropicalis [25] = test: Fungicidal activity against Candida tropicalis isolate 15 at =< 3.12 ug/ml after 24 to 48 hrs by time-kill assay; format: functional, organism-based
Candida tropicalis [26] = test: Antifungal activity against 2 x 10^7 CFU/ml Candida tropicalis isolate 2 in RPMI 1640 medium after 24 hrs by broth microdilution method; format: functional; conditions: isolate 2, 24 h
Candida tropicalis [27] = test: Antifungal activity against 10^5 CFU/ml Candida tropicalis isolate 4 in RPMI 1640 medium at 12.5 ug/ml treated for 24 hrs followed by incubation in drug free medium for 48 hrs by broth microdilution method; format: functional, organism-based
Candida tropicalis [28] = test: Antifungal activity against 2 x 10^7 CFU/ml Candida tropicalis isolate 6 in antibiotic medium 3 after 24 hrs by broth microdilution method; format: functional; conditions: isolate 6, 24 h
Candida tropicalis [29] = test: Antifungal activity against > 2 x 10^7 CFU/ml Candida tropicalis isolate 9 in antibiotic medium 3 assessed as partial growth after 24 hrs by broth microdilution method; format: functional, organism-based
Candida tropicalis [30] = test: Antifungal activity against 10^5 CFU/ml Candida tropicalis isolate 1 in RPMI 1640 medium at 12.5 ug/ml treated for 24 hrs followed by incubation in drug free medium for 48 hrs by broth microdilution method; format: functional, organism-based
Candida tropicalis [31] = test: Antifungal activity against 2 x 10^7 CFU/ml Candida tropicalis isolate 14 in RPMI 1640 medium after 24 hrs by broth microdilution method; format: functional; conditions: isolate 14, 24 h
Candida tropicalis [32] = test: Antifungal activity against 10^5 CFU/ml Candida tropicalis isolate 4 in RPMI 1640 medium at =< 0.09 ug/ml after 24 hrs followed by incubation in drug free medium for 48 hrs by broth microdilution method; format: functional, organism-based
Candida tropicalis [33] = test: Antifungal activity against > 2 x 10^7 CFU/ml Candida tropicalis isolate 11 in RPMI 1640 medium assessed as partial growth after 24 hrs by broth microdilution method; format: functional, organism-based
Candida tropicalis [34] = test: Antifungal activity against 10^5 CFU/ml Candida tropicalis isolate 15 in RPMI 1640 medium at 12.5 ug/ml treated for 24 hrs followed by incubation in drug free medium for 48 hrs by broth microdilution method; format: functional, organism-based
Candida tropicalis [35] = test: Antifungal activity against Candida tropicalis ATCC 750 in RPMI 1640 medium assessed as paradoxical growth at 6.25 ug/ml after 24 hrs by broth microdilution method; format: functional, organism-based

MIC (Candida tropicalis [3]): 0.024 µg/mL (≈ 0.022 µM)
MIC (Candida tropicalis [14]): 0.024 µg/mL (≈ 0.022 µM)
MIC (Candida tropicalis [24]): 0.024 µg/mL (≈ 0.022 µM)
MIC (Candida tropicalis [26]): 0.024 µg/mL (≈ 0.022 µM)
MIC (Candida tropicalis [28]): 0.024 µg/mL (≈ 0.022 µM)
MIC (Candida tropicalis [31]): 0.024 µg/mL (≈ 0.022 µM)
SMILES: CC[C@H](C)C[C@H](C)CCCCCCCCC(=O)N[C@H]1C[C@@H](O)[C@@H](NCCN)NC(=O)[C@@H]2[C@@H](O)CCN2C(=O)[C@H]([C@H](O)CCN)NC(=O)[C@H]([C@H](O)[C@@H](O)c2ccc(O)cc2)NC(=O)[C@@H]2C[C@@H](O)CN2C(=O)[C@H]([C@@H](C)O)NC1=O [CASPOFUNGIN]
Activity (Candida tropicalis [1]): inactive
Activity (Candida tropicalis [2]): inactive
Activity (Candida tropicalis [4]): inactive
Activity (Candida tropicalis [5]): inactive
Activity (Candida tropicalis [6]): inactive
Activity (Candida tropicalis [7]): inactive
Activity (Candida tropicalis [8]): Active
Activity (Candida tropicalis [9]): inactive
Activity (Candida tropicalis [10]): inactive
Activity (Candida tropicalis [11]): Active
Activity (Candida tropicalis [12]): Active
Activity (Candida tropicalis [13]): Active
Activity (Candida tropicalis [15]): Active
Activity (Candida tropicalis [16]): inactive
Activity (Candida tropicalis [17]): inactive
Activity (Candida tropicalis [18]): Active
Activity (Candida tropicalis [19]): Active
Activity (Candida tropicalis [20]): inactive
Activity (Candida tropicalis [21]): inactive
Activity (Candida tropicalis [22]): inactive
Activity (Candida tropicalis [23]): inactive
Activity (Candida tropicalis [25]): Active
Activity (Candida tropicalis [27]): inactive
Activity (Candida tropicalis [29]): inactive
Activity (Candida tropicalis [30]): inactive
Activity (Candida tropicalis [32]): Active
Activity (Candida tropicalis [33]): inactive
Activity (Candida tropicalis [34]): inactive
Activity (Candida tropicalis [35]): inactive
